Assay results as given in patent US6750220B2, “Amine salt of an integrin receptor antagonist” (Merck & Co., Inc., priority 2001, dated 2004).
Counter-ions that a name gives are not always drawn.

Assay: solubility in water
Type: physicochemical
Conditions: compared with the parent zwitterionic compound of structural formula IV

O=C(O)CC(CCCCCCc1ccc2c(n1)NCCC2)c1cncnc1 (stereo not shown) [TRIS salt, tris(hydroxymethyl)aminomethyl (“TRIS”) salt of 3-(pyrimidin-5-yl)-9-(5,6,7,8-tetrahydro-[1,8]-naphthyridin-2-yl)-nonanoic acid]
solubility in water: greater solubility in water than the parent zwitterionic compound
